Assay: Iron-chelating activity after 4 hrs by CAS assay
Format: functional

| SMILES | ED50 |
| --- | --- |
| COC(=O)CCC(=O)NCCCCCN(O)C(=O)CC(C)C | > 1000 µM |
| CC(=O)N(O)CCCCCNC(=O)CCC(=O)N(O)CCCCCNC(=O)CCC(=O)N(O)CCCCCN | 120 µM |
| CC(C)CC(=O)N(O)CCCCCNC(=O)CCC(=O)O | > 1000 µM |
| CC(C)CC(=O)N(O)CCCCCNC(=O)CCC(=O)N(O)CCCCCNC(=O)CCC(=O)N(O)CCCCCN | 115 µM |
| CC(C)CC(=O)N(O)CCCCCNC(=O)CCC(=O)N(O)CCCCCNC(=O)CCC(=O)O | 110 µM |

Source: ChEMBL document CHEMBL1142110, “Tenacibactins A-D, hydroxamate siderophores from a marine-derived bacterium, Tenacibaculum sp. A4K-17” (J Nat Prod, 2007)
